Reference: patent US10662223B2, “Composition for organ, tissue, or cell transplantation, kit, and transplantation method” (GemVax & KAEL Co., Ltd., priority 2014, dated 2020)
“Also recorded” adds a separate entry of the source.

Tests used:
[1] = tested on: transplanted lung; assay: Rat lung transplantation: analysis of bronchoalveolar lavage fluid (BAL); assay type: in vivo, Sprague-Dawley rat; details: PERFADEX 50 mL + PEP1 5 mg
Procedure: (§1) The experiment was performed using two rats with the same gene, and lung transplantation was carried out by detaching the left lung from a donor rat and placing the donor's lung in the left thoracic cavity from which an original left lung was removed of the recipient rat. To basically prevent rejection, the rats had the same gene. Both the donor rat and recipient rat had weights of 300 to 350 g, and were the Sprague-Dawley species. Following the extraction of a lung from the donor rat, the lung was transplanted to the recipient rat through surgical procedures.
(§2) During perfusion, mechanical ventilation was continuously performed to allow uniform lung perfusion.
(§3) (4) Following the perfusion, trachea was ligated while the lung expanded under the endotracheal intubation, a heart-lung block was extracted, and then peripheral structures such as esophagus were removed on a cold petri-dish. The heart-lung block was weighed, and subjected to cold storage in a perfusion solution, which was the same as the lung perfusion solution. Ischemic duration was set three hours.
(§4) For the experiment, the lung transplant rats were divided into four groups. […]

[2] = tested on: macrophages and neutrophils in renal tissue; assay: Renal IR injury mouse model: innate immune cell infiltration by immunohistochemistry (F4/80, Gr-1); assay type: in vivo, C57BL/6 mouse; details: 24 hours after IR; 1000 nmol/kg 30 minutes before and 12 hours after IR; compared with PBS control group
Procedure: A renal JR injury mouse model was obtained by inducing IR by bilateral clamping renal pedicles for 30 minutes and restoring blood flow after 30 minutes by removing the clamps. Experimental groups were divided into three groups, which are an administered group (PEP 1), a control group (PBS: without PEP 1 administration), and a Sham group (no bilateral clamping). PEP 1 was subcutaneously injected at a concentration of 1000 nmol/kg 30 minutes before and 12 hours after the IR induction. A C57BL/6 mouse (8-week-old; Charles River Laboratories, Wilmington, Mass.) was used to induce renal IR injury. The renal pedicles were clamped with vascular forceps to block blood flow, and ischemia was induced for […] in the renal IR injury model, followed by reperfusion. The peptide PEP 1 was diluted with PBS to a concentration of 1000 nmol/kg, and then intraperitoneally injected twice, 30 minutes before and 12 hours after the IR. […] Infiltration of innate immune cells was evaluated by staining the renal tissue with a macrophage maker (F4/80) and a neutrophil maker (Gr-1) through immunohistochemistry 24 hours after the IR. Specifically, infiltrated macrophages and neutrophils were stained with a macrophage-specific antibody (F4/80, abcam., Cambridge, Mass.) by an immunochemical method performed on paraffin-containing sections.

[3] = tested on: transplanted lung; assay: Rat lung transplantation: H&E staining of alveolar tissue; assay type: in vivo, Sprague-Dawley rat
Procedure: as §1, §2, §3, §4

[4] = tested on: IL-6; assay: Renal IR injury mouse model: IL-6 level in renal tissue; assay type: in vivo, C57BL/6 mouse; details: 24 hours after IR; 1000 nmol/kg 30 minutes before and 12 hours after IR; compared with PBS control group
Procedure: (§5) A renal JR injury mouse model was obtained by inducing IR by bilateral clamping renal pedicles for 30 minutes and restoring blood flow after 30 minutes by removing the clamps. Experimental groups were divided into three groups, which are an administered group (PEP 1), a control group (PBS: without PEP 1 administration), and a Sham group (no bilateral clamping). PEP 1 was subcutaneously injected at a concentration of 1000 nmol/kg 30 minutes before and 12 hours after the IR induction.
(§6) A C57BL/6 mouse (8-week-old; Charles River Laboratories, Wilmington, Mass.) was used to induce renal IR injury. The renal pedicles were clamped with vascular forceps to block blood flow, and ischemia was induced for […] in the renal IR injury model, followed by reperfusion.
(§7) The peptide PEP 1 was diluted with PBS to a concentration of 1000 nmol/kg, and then intraperitoneally injected twice, 30 minutes before and 12 hours after the IR.
(§8) Protein was extracted from renal tissue 24 hours after the IR, and IL-6, MCP-1 and TNF-α levels were measured by a cytometric bead array. Mouse IL-6, MCP-1, TNF-α, and an ELISA kit were purchased from R&D Systems, and the experiment was conducted according to the manufacturer's protocol.

[5] = tested on: MCP-1; assay: Renal IR injury mouse model: MCP-1 level in renal tissue; assay type: in vivo, C57BL/6 mouse; details: 24 hours after IR; 1000 nmol/kg 30 minutes before and 12 hours after IR; compared with PBS control group
Procedure: as §5, §6, §7, §8

[6] = tested on: transplanted lung; assay: Rat lung transplantation: wet/dry weight ratio (reperfusion edema); assay type: in vivo, Sprague-Dawley rat; details: PERFADEX 50 mL + PEP1 5 mg; lower lobe of transplanted lung
Procedure: as §1, §2, §3, §4

[7] = tested on: abdominal skin flap; assay: Flap IR injury rat model: flap survivability; assay type: in vivo, Sprague-Dawley Rat; details: 7 days after IR induction; 10 mg/500 μl intramuscularly 30 minutes before and 1, 2, 3, 4, 5, and 7 days after IR; 7 hours ischemia
Procedure: Transplantation of a flap of the rectus abdominis was carried out as follows. An IR injury rat model was obtained by detaching a flap with a size of 5 cm×5 cm from abdominal skin of a white rat (Sprague-Dawley Rat, 180 to 230 g), adding PEP1 or saline to the rat, inducing ischemia through clamping, and restoring blood flow after 7 hours by removing the clamps (refer to FIG. 11).
Experimental groups were divided into three groups, which are an administered group (PEP 1), a control group (PBS without PEP 1), and a sham group (group in which no IR injury induced). PEP 1 (10 mg/500 μl) or saline (500 Id) was intramuscularly injected 30 minutes before and 1, 2, 3, 4, 5, and 7 days after the IR induction.
Flap survivability was measured 7 days after the IR induction. The flap survivability was measured through digital image analysis using imageJ program.

[8] = tested on: renal tissue; assay: Renal IR injury mouse model: TUNEL staining, renal apoptosis; assay type: in vivo, C57BL/6 mouse; details: 24 hours after IR; 1000 nmol/kg 30 minutes before and 12 hours after IR; compared with PBS control group
Procedure: A renal JR injury mouse model was obtained by inducing IR by bilateral clamping renal pedicles for 30 minutes and restoring blood flow after 30 minutes by removing the clamps. Experimental groups were divided into three groups, which are an administered group (PEP 1), a control group (PBS: without PEP 1 administration), and a Sham group (no bilateral clamping). PEP 1 was subcutaneously injected at a concentration of 1000 nmol/kg 30 minutes before and 12 hours after the IR induction. A C57BL/6 mouse (8-week-old; Charles River Laboratories, Wilmington, Mass.) was used to induce renal IR injury. The renal pedicles were clamped with vascular forceps to block blood flow, and ischemia was induced for […] in the renal IR injury model, followed by reperfusion. The peptide PEP 1 was diluted with PBS to a concentration of 1000 nmol/kg, and then intraperitoneally injected twice, 30 minutes before and 12 hours after the IR. […] Renal apoptosis was evaluated by staining renal tissue with TUNEL stain 24 hours after the IR. Renal paraffin sections were stained with TUNEL using a TUNEL staining kit (Roche Applied Science, Indianapolis, Ind., USA).

[9] = tested on: TNF-α; assay: Renal IR injury mouse model: TNF-α level in renal tissue; assay type: in vivo, C57BL/6 mouse; details: 24 hours after IR; 1000 nmol/kg 30 minutes before and 12 hours after IR; compared with PBS control group
Procedure: as §5, §6, §7, §8

[10] = tested on: renal IR injury mouse model; assay: Renal IR injury mouse model: blood urea nitrogen (BUN) and creatine; assay type: in vivo, C57BL/6 mouse; details: 24 hours after IR; 1000 nmol/kg 30 minutes before and 12 hours after IR; compared with PBS control group
Procedure: as §5, §6, §7
Blood was taken 24 hours after the JR and the levels of blood urea nitrogen (BUN) and creatine as renal toxicity markers were measured, renal tissue was taken and prepared into paraffin blocks for immunohistochemical and histological studies, and then proteins were extracted to measure cytokine levels. The creatine concentration and BUN were measured using an autoanalyzer (Technicon RA-1000; Bayer, Tarrytown, N.Y.).

[11] = PERFADEX 50 mL + PEP1 5 mg as lung preservation solution

EARPALLTSRLRFIPK (listed as Homo sapiens) [PEP 1, 16 aa peptide derived from Homo sapiens telomerase, position [611-626]]
expression of inflammatory cells in BAL among the four groups [1]: lowest expression | infiltration of macrophages into renal tissue (F4/80) [2]: remarkably decreased; also recorded: inhibited | infiltration of neutrophils into renal tissue (Gr-1) [2]: remarkably decreased; also recorded: inhibited | preventing hemorrhage and maintaining the alveolar wall, 5 mg PEP1 rather than 50 mg PEP1 ([3]; PEP1 added to PERFADEX 50 mL, 5 mg compared with 50 mg): more effective | alveolar wall of transplanted lung (H&E) [3, 11]: did not get harder | hemorrhage in transplanted lung (H&E) [3, 11]: rarely occurred | IL-6 level in renal tissue [4]: significantly decreased; also recorded: significantly inhibited | MCP-1 level in renal tissue [5]: significantly decreased; also recorded: significantly inhibited | reperfusion edema (wet/dry weight ratio) compared with normal saline administered group [6]: significantly (p<0.05) decreased | reperfusion edema level among the four groups [6]: lowest level | flap survivability [7]: 58.88%±11.44% | TUNEL-positive cells (renal apoptosis) [8]: remarkably decreased | TNF-α level in renal tissue [9]: no significant difference | blood urea nitrogen (BUN) level [10]: significantly decreased | creatine level [10]: significantly decreased
